Entries after “also recorded” stand apart in the source; their conditions may differ. Where two headings read alike, the source gives them in different places.
Experiments:
Mtr LpqY [1] = target: T1, Mtr LpqY (Mycolicibacterium thermoresistibile, UniProt G7CES0); experiment: Thermal shift assay (SYPRO Orange) of potential ligands; format: binding, Mycobacterium thermoresistible; settings: ligand 10 mM; for ΔTm: Mtr LpqY 2.6 μM, shift relative to protein alone (Tm 66.0 °C), no unit in table, °C
Mtr LpqY [2] = target: T1, Mtr LpqY; experiment: Microscale thermophoresis (MST), wild-type protein; format: binding, Mycobacterium thermoresistible; settings: for Kd: 21 °C, wild-type Mtr LpqY 500 nM, mean ± SEM, at least three experiments
mycobacteria = tested on: mycobacteria; design: method as in PMID 22978752; settings: cited from earlier work
Mtr LpqY [3] = target: T1, Mtr LpqY; experiment: Saturation transfer difference (STD) NMR; format: binding, Mycobacterium thermoresistible; settings: protein 25 μM, ligand 1 mM, PBS D2O pH 7.4, 288 K
Description: However, despite numerous efforts, we were unable to obtain a crystal structure of Mtr LpqY in complex with 6-azido-trehalose. Therefore, to further our understanding into the mode of ligand binding, the binding epitope of 6-azido-trehalose with Mtr LpqY was determined in solution by saturation transfer difference (STD) NMR experiments, as described in the Methods section.
All the STD NMR experiments were performed in PBS D2O buffer, pH 7.4. […] STD NMR spectra were acquired on a Bruker Avance 500.13 MHz at 288 K. The on- and off-resonance spectra were acquired using a train of 50 ms Gaussian selective saturation pulses using a variable saturation time from 0.5 s to 5 s, and a relaxation delay (D1) of 4 s. The water signal was suppressed using the watergate technique ([41]), whereas the residual protein resonances were filtered using a T1ρ-filter of 40 ms. All the spectra were acquired with a spectral width of 8 kHz and 24K data points using 512 scans. The on-resonance spectra were acquired by saturating at 0.80 (aliphatic hydrogens) or 7.20 ppm (aromatic hydrogens), as average chemical shifts predicted from shiftX2 ([42]) for the aliphatic and aromatic residues present in the binding site of Mtr LpqY, whereas the off-resonance spectra were acquired by saturating at 40 ppm. […]

T1 sequence (G7CES0 29-471): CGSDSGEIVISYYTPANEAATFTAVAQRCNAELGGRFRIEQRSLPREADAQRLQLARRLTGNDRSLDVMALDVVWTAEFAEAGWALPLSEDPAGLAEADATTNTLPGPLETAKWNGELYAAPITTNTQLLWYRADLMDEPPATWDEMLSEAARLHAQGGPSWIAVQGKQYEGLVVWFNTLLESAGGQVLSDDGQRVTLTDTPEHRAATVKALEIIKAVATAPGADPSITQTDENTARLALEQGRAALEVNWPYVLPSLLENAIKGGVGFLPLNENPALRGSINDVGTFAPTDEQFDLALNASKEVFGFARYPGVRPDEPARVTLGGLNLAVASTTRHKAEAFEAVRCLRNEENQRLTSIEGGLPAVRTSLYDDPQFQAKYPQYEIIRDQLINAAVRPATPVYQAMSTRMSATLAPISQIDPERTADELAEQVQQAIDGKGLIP

| Structure (SMILES) | ΔTm (Mtr LpqY [1]) | Recognition in the thermal shift screen (in words) (Mtr LpqY [1]) | further results |
| --- | --- | --- | --- |
| OC[C@H]1O[C@@H](O[C@H]2O[C@H](CO)[C@@H](O)[C@H](O)[C@H]2O)[C@H](O)[C@@H](O)[C@@H]1O [α,β-trehalose] | 3.7 ± 0.1 | – | – |
| OC[C@H]1O[C@H](O[C@H]2C(O)O[C@H](CO)[C@@H](O)[C@@H]2O)[C@H](O)[C@@H](O)[C@@H]1O (stereo partly shown) [Kojibiose] | 7.9 ± 0.2 | reduced ΔTm shifts | Fold reduction in binding affinity (increase in Kd) compared with trehalose (Mtr LpqY [2]): ~30 fold; Kd (Mtr LpqY [2]; read-out: Kd): 2350 ± 123 µM |
| OC[C@H]1O[C@H](O[C@H]2O[C@H](CO)[C@@H](O)[C@H](O)[C@H]2O)[C@@H](O)[C@@H](O)[C@@H]1O [Mannotrehalose, α-D-mannopyranosyl-(1→1)-α-D-glucopyranoside] | 5.9 ± 0.3 | – | – |
| OC[C@H]1O[C@H](O[C@H]2[C@H](O)[C@@H](O)C(O)O[C@@H]2CO)[C@H](O)[C@@H](O)[C@@H]1O (mixture of isomers) [maltose] | – | reduced ΔTm shifts; also recorded: inability | – |
| OCC1O[C@H](O[C@H]2OC(CO)[C@H](O)[C@H](O)C2O)C(O)[C@@H](O)[C@H]1O (stereo partly drawn) [Galactotrehalose, α-D-galactopyranosyl-(1→1)-α-D-glucopyranoside] | 6.1 ± 0.6 | – | – |
| OC[C@H]1O[C@H](OC[C@H]2OC(O)[C@H](O)[C@@H](O)[C@@H]2O)[C@H](O)[C@@H](O)[C@@H]1O (stereo partly shown) [Isomaltose] | 4.1 ± 0.2 | reduced ΔTm shifts | – |
| [N-]=[N+]=N[C@H]1[C@H](O)[C@@H](O)[C@@H](O[C@H]2O[C@H](CO)[C@@H](O)[C@H](O)[C@H]2O)O[C@@H]1CO [4-azido-4-deoxy-trehalose, 4-azido-4-deoxy-α,α′-trehalose] | 10.2 ± 0.1 | comparable to trehalose | Kd (Mtr LpqY [2]; read-out: Kd): 247 ± 7.1 µM; Import into the cytosol of mycobacteria (mycobacteria): imported and found in the cytosol |
| NC[C@H]1O[C@H](O[C@H]2O[C@H](CO)[C@@H](O)[C@H](O)[C@H]2O)[C@H](O)[C@@H](O)[C@@H]1O [6-amino-6-deoxy-trehalose, 6-amino-6-deoxy-α,α′-trehalose] | 7.0 ± 0.1 | – | – |
| [N-]=[N+]=N[C@H]1[C@@H](O[C@H]2O[C@H](CO)[C@@H](O)[C@H](O)[C@H]2O)O[C@H](CO)[C@@H](O)[C@@H]1O [2-azido-2-deoxy-trehalose, 2-azido-2-deoxy-α,α′-trehalose] | 1.7 ± 0.1 | only a minor shift | Kd (Mtr LpqY [2]; read-out: Kd): 1916 ± 7.7 µM; Import into the cytosol of mycobacteria (mycobacteria): imported and found in the cytosol |
| O=P(O)(O)OC[C@H]1O[C@H](O[C@H]2O[C@H](CO)[C@@H](O)[C@H](O)[C@H]2O)[C@H](O)[C@@H](O)[C@@H]1O [Trehalose-6-phosphate] | 3.7 ± 0.2 | – | – |
| [N-]=[N+]=N[C@@H]1[C@@H](O)[C@@H](O[C@H]2O[C@H](CO)[C@@H](O)[C@H](O)[C@H]2O)O[C@H](CO)[C@H]1O [3-azido-3-deoxy-trehalose] | 6.7 ± 0.2 | – | Kd (Mtr LpqY [2]; read-out: Kd): 475 ± 17.2 µM; Import into the cytosol of mycobacteria (mycobacteria): is not |
| C[N+](C)(C)CCOP(=O)([O-])OC[C@H](O)CO [glycerophosphocholine] | – | did not observe binding | – |
| OC[C@H]1OC(O)[C@H](O)[C@@H](O)[C@@H]1O (stereo partly shown) [glucose] | – | no influence on the ΔTm | – |
| OC[C@H]1O[C@H](O[C@H]2O[C@H](CO)[C@@H](O)[C@H](O)[C@H]2O)[C@H](O)[C@@H](O)[C@@H]1O [Trehalose, α-D-glucopyranosyl-α-D-glucopyranoside] | – | – | Binding by STD NMR (Mtr LpqY [3]): Binding was confirmed |
| [N-]=[N+]=NC[C@H]1O[C@H](O[C@H]2O[C@H](CO)[C@@H](O)[C@H](O)[C@H]2O)[C@H](O)[C@@H](O)[C@@H]1O [6-azido-6-deoxy-trehalose, 6-azido-6-deoxy-α,α′-trehalose] | – | – | Binding by STD NMR (Mtr LpqY [3]): Binding was confirmed; Kd (Mtr LpqY [2]; Kd): 443 ± 5.3 µM; Import into the cytosol of mycobacteria (mycobacteria): imported and found in the cytosol |
| OC[C@H]1O[C@H](O[C@H]2[C@H](O)[C@@H](CO)OC(O)[C@@H]2O)[C@H](O)[C@@H](O)[C@@H]1O (stereo partly shown) [Nigerose] | 5.1 ± 0.1 | reduced ΔTm shifts | – |

Reference: publication PMC7949145 (The Journal of Biological Chemistry, 2021)
